Key:
Type in all cases: in vivo
[1] = system: Rhipicephalus (Boophilus) microplus larvae (strain Parkhurst, resistant against synthetic pyrethroids); experiment: Rhipicephalus (Boophilus) microplus in-vitro contact test, larval cattle tick; conditions: after 48 hours, read-out: efficacy (larvae dead or moribund)
Method in brief: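 Acetone solutions were coated onto glass tube walls (900 ppm gives 5 μg/cm²); after drying, 20–50 pyrethroid-resistant Parkhurst larvae added and held at 27 °C, 85% RH. At 48 h, efficacy as % larvae dead or moribund, judged by loss of negative geotaxis.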

[2] = system: adult engorged female ticks (Rhipicephalus microplus); experiment: Rhipicephalus (Boophilus) microplus injection test; conditions: 168 h, 4 μg/animal, egg deposition after 7 days, read-out: efficacy (infertile eggs)
Method in brief: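 Five adult engorged female ticks injected into the abdomen with 1 μL compound solution in DMSO, then held in a climate chamber. Fertile egg deposition assessed after 7 days, unclear eggs kept until hatching (about 42 days); efficacy 100% = all eggs infertile, 0% = all fertile.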

[3] = system: adult cat fleas (Ctenocephalides felis); experiment: Ctenocephalides felis in-vitro contact test, adult cat flea; conditions: 1 μg/cm^2 (=100 g/ha), after 48 hours, read-out: efficacy (fleas dead or moribund)
Method in brief: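 Acetone solution coated onto glass tube walls; 900 ppm gives 5 μg/cm². Once dry, 5–10 adult fleas per tube held at room temperature for 48 h. Efficacy (%) is the share of fleas dead or moribund, i.e. unable to climb away on a 45–50° C heating plate.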

[4] = system: adult unfed cat fleas (Ctenocephalides felis); experiment: Ctenocephalides felis oral test; conditions: 48 h, 100 ppm in citrated cattle blood, after 2 days
Method in brief: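 About 20 adult unfed cat fleas fed through parafilm on citrated cattle blood containing compound (from a DMSO concentrate). Blood held at 37° C, fleas at room temperature. Mortality in % scored after 2 days.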

[5] = system: adult brown dog ticks (Rhipicephalus sanguineus); experiment: Rhipicephalus sanguineus in-vitro contact test, adult brown dog ticks; conditions: 48 h, 5 μg/cm^2 (=500 g/ha), after 48 hours, read-out: efficacy (ticks dead or moribund)
Method in brief: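 Acetone solution coated on glass tube inner walls (900 ppm, giving 5 μg/cm^2); after drying, 5–10 adult ticks added and kept 48 h at room temperature. Efficacy scored as percent dead or moribund, i.e., ticks unable to climb away on a 45–50 °C heating plate within 5 min.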

[6] = system: adult mosquitoes Aedes aegypti strain MONHEIM; experiment: Aedes aegypti test (AEDSAE surface treatment & contact assay); conditions: 24 hours after contact, read-out: mortality (efficacy)
Experimental: Aedes aegypti Test (AEDSAE Surface Treatment & Contact Assay)
(§1) Solvent: Aceton+2000 ppm rapeseed oil methyl ester (RME)
(§2) In order to produce a sufficient, active ingredient containing solution it is necessary to solve the test compound in the solvent-mix (acetone at 2 mg/ml/RME 2000 ppm). This solution is pipetted onto a glazed tile and after evaporation of the acetone, adult mosquitoes of the species Aedes aegypti strain MONHEIM are placed onto the dried surface. The exposure time is 30 minutes.
(§3) Mortality in percent (%) is determined 24 hours after contact of the insects to the treated surface. 100% mortality means that all tested insects are dead, whereas 0% means that no insect died.

[7] = system: adult mosquitoes Anopheles funestus strain FUMOZ-R; experiment: Anopheles funestus test (ANPHFU surface treatment & contact assay); conditions: surface concentration 20 mg/m^2, 30 minutes exposure, 24 hours after contact, read-out: mortality (efficacy)
Experimental: Anopheles funestus Test (ANPHFU Surface Treatment & Contact Assay)
as §1
as §2, with “Anopheles funestus” for “Aedes aegypti”, “FUMOZ-R (Hunt et al., Med. Vet. Entomol. 2005 Sep. 19(3): 271-275)” for “MONHEIM”
as §3

[8] = system: adult flies Musca domestica strain WHO-N; experiment: Musca domestica test (MUSCDO surface treatment & contact assay); conditions: surface concentration 4 mg/m^2, 30 minutes exposure, 24 hours after contact, read-out: mortality (efficacy)
Experimental: Musca domestica Test (MUSCDO Surface Treatment & Contact Assay)
as §1
as §2, with “flies” for “mosquitoes”, “Musca domestica” for “Aedes aegypti”, “WHO-N” for “MONHEIM”
as §3

[9] = system: adult Blattella germanica strain PAULINIA; experiment: Blattella germanica test (BLTTGE surface treatment & contact assay); conditions: surface concentration 20 mg/m^2, 30 minutes exposure, 24 hours after contact, read-out: mortality (efficacy)
Experimental: Blattella germanica Test (BLTTGE Surface Treatment & Contact Assay)
as §1
as §2, with “animals” for “mosquitoes”, “Blattella germanica” for “Aedes aegypti”, “PAULINIA” for “MONHEIM”
as §3

CC(NC(=O)c1cc(F)cc(C(F)(F)F)c1)c1nccnc1-c1ncccn1 (racemic) [Example I-7, (rac)-3-Fluoro-N-(1-(3-(pyrimidin-2-yl)pyrazin-2-yl)ethyl)-5-(trifluoromethyl)benzamide]
100%: pest or weed control at 1 µg/cm2, 100 g/ha ([1]; 1 μg/cm^2 (=100 g/ha)) | pest or weed control at 5 µg/cm2, 500 g/ha ([1]; 5 μg/cm^2 (=500 g/ha)) | pest or weed control at 0.004 mg [2] | mortality at 100 ppm [4] | pest or weed control at 5 µg/cm2, 500 g/ha [5]
90%: pest or weed control at 1 µg/cm2, 100 g/ha [3]
80 to 100%: mortality at 4 mg/m2 ([6]; surface concentration 4 mg/m^2, 30 minutes exposure) | mortality at 20 mg/m2 ([6]; surface concentration 20 mg/m^2, 30 minutes exposure) | mortality at 20 mg/m2 [7] | mortality at 4 mg/m2 [8] | mortality at 20 mg/m2 [9]
